Values of other authors as cited in patent US5315013A, “Substituted pyrazole angiotensin II antagonists” (E. I. Du Pont de Nemours and Company, priority 1992, dated 1994).

Key:
[1] = system: AII
[2] = system: arterial pressure

Question: With CNCC(=O)N[C@@H](CCCN=C(N)N)C(=O)N[C@H](C(=O)N[C@@H](Cc1ccc(O)cc1)C(=O)N[C@H](C(=O)N[C@@H](Cc1cnc[nH]1)C(=O)N1CCC[C@H]1C(=O)N[C@@H](C)C(=O)O)C(C)C)C(C)C [Saralasin] as the molecule, how does the “effects of AII on the blood pressure blocked” value ([1]; pithed rats) read?
Answer: Its value is “blocks the effects of AII on the blood pressure of pithed rats”.

Question: And the “competitive antagonism of the actions of AII” value ([1]; potency in words)?
Answer: The value was “one of the most potent competitive antagonists of the actions of AII”.

Question: What about the “lowering of arterial pressure” value ([2]; mammals and man, elevated pressure dependent on circulating AII) of the same molecule?
Answer: Its value is “demonstrated to lower arterial pressure in mammals and man”.

Question: And the “effect of oral doses” value ([2]; oral)?
Answer: Its value is “oral doses being ineffective”.

Question: And the “pressor effects (agonistic character)” value ([2]; pressure not sustained by AII)?
Answer: Its value is “generally elicits pressor effects when the pressure is not sustained by AII”.
